Test: Dynamic viscosity of crude/dimethyl sulfide blends (rheometer, closed cup)
Type: physicochemical
Method: The quality of dimethyl sulfide as an oil recovery agent based on the crude oil viscosity lowering properties of dimethyl sulfide was evaluated. Three crude oils having widely disparate viscosity characteristics—an African Waxy crude, a Middle Eastern asphaltic crude, and a Canadian asphaltic crude—were blended with dimethyl sulfide.
A control sample of each crude was prepared containing no dimethyl sulfide, and samples of each crude were prepared and blended with dimethyl sulfide to prepare crude samples containing increasing concentrations of dimethyl sulfide. Each sample of each of the crudes was heated to 60° C. to dissolve any waxes therein and to permit weighing of a homogeneous liquid, weighed, allowed to cool overnight, then blended with a selected quantity of dimethyl sulfide. The samples of the crude/dimethyl sulfide blend were then heated to 60° C. and mixed to ensure homogeneous blending of the dimethyl sulfide in the samples. Absolute (dynamic) viscosity measurements of each of the samples were taken using a rheometer and a closed cup sensor assembly. Viscosity measurements of each of the samples of the West African waxy crude and the Middle Eastern asphaltic crude were taken at 20° C., 40° C., 60° C., 80° C., and then again at 20° C. after cooling from 80° C., where the second measurement at 20° C. is taken to measure the viscosity without the presence of waxes since wax formation occurs slowly enough to permit viscosity measurement at 20° C. without the presence of wax. Viscosity measurements of each of the samples of the Canadian asphaltic crude were taken at 5° C., 10° C., 20° C., 40° C., 60° C., 80° C.

With CSC [Dimethyl Sulfide, dimethyl sulfide] the Viscosity (DMS 1.43 wt. %, 20° C.) was 212525 mPa s, the Viscosity (DMS 1.43 wt. %, 40° C.) was 14721 mPa s and the Viscosity (DMS 1.43 wt. %, 60° C.) was 2209 mPa s. The Viscosity (DMS 1.43 wt. %, 80° C.) was 538 mPa s, the Viscosity (DMS 2.07 wt. %, 20° C.) was 134880 mPa s and the Viscosity (DMS 2.07 wt. %, 40° C.) was 10523 mPa s. It also gave a Viscosity (DMS 2.07 wt. %, 60° C.) of 1747 mPa s, a Viscosity (DMS 2.07 wt. %, 80° C.) of 427 mPa s and a Viscosity (DMS 4.87 wt. %, 20° C.) of 28720 mPa s. It also gave a Viscosity (DMS 4.87 wt. %, 40° C.) of 3235 mPa s, a Viscosity (DMS 4.87 wt. %, 60° C.) of 985 mPa s and a Viscosity (DMS 4.87 wt. %, 80° C.) of 328 mPa s.

— patent US20140000884A1, “PETROLEUM RECOVERY PROCESS AND SYSTEM” (Shell Oil Company, priority 2012, published 2014)
